Data published in the supplement of paper PMC10307832.

Experiments:
Assay in all cases: relative viability (nuclei count vs DMSO), 5 days (fraction); higher = more cells survive
RU-SKI 43 + Lapatinib = compound: CC[C@@H](C)CNCC(=O)N1CCC2=C([C@@H]1COC3=CC=CC(=C3)C)C=CS2 [RU-SKI 43] + CS(=O)(=O)CCNCc1ccc(-c2ccc3ncnc(Nc4ccc(OCc5cccc(F)c5)c(Cl)c4)c3c2)o1 [Lapatinib] (partner 2 µM)
Procedure, shortened: (§1)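 One day after seeding in 1536-well plates, lung cancer cell lines were dosed by pin tool. Dosing was either single-drug or a fixed anchor-drug dose plus five library-drug doses (not always all listed) in √10 steps. After 5 days, nuclei were stained in one fix-and-stain step and counted on 4× images, and relative viability is the nuclei count of treated wells over that of vehicle wells, given as the median of duplicate plates.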

Irinotecan + Trametinib = compound: CCc1c2c(nc3ccc(OC(=O)N4CCC(N5CCCCC5)CC4)cc13)-c1cc3c(c(=O)n1C2)COC(=O)[C@]3(O)CC [Irinotecan] + CC(=O)Nc1cccc(-n2c(=O)n(C3CC3)c(=O)c3c(Nc4ccc(I)cc4F)n(C)c(=O)c(C)c32)c1 [Trametinib] (partner 0.02 µM)
Procedure, shortened: as §1

Irinotecan + Lapatinib = compound: CCc1c2c(nc3ccc(OC(=O)N4CCC(N5CCCCC5)CC4)cc13)-c1cc3c(c(=O)n1C2)COC(=O)[C@]3(O)CC [Irinotecan] + CS(=O)(=O)CCNCc1ccc(-c2ccc3ncnc(Nc4ccc(OCc5cccc(F)c5)c(Cl)c4)c3c2)o1 [Lapatinib] (partner 2 µM)
Procedure, shortened: as §1

Irinotecan + Dasatinib = compound: CCc1c2c(nc3ccc(OC(=O)N4CCC(N5CCCCC5)CC4)cc13)-c1cc3c(c(=O)n1C2)COC(=O)[C@]3(O)CC [Irinotecan] + Cc1nc(Nc2ncc(C(=O)Nc3c(C)cccc3Cl)s2)cc(N2CCN(CCO)CC2)n1 [Dasatinib] (partner 0.075 µM)
Procedure, shortened: as §1

Cell Line	relative viability (RU-SKI 43 + Lapatinib; first compound 0.1 µM)	relative viability (RU-SKI 43 + Lapatinib; first compound 0.3162 µM)	relative viability (RU-SKI 43 + Lapatinib; first compound 1 µM)	relative viability (RU-SKI 43 + Lapatinib; first compound 3.162 µM)	relative viability (RU-SKI 43 + Lapatinib; first compound 10 µM)	relative viability (Irinotecan + Trametinib; first compound 0.6325 µM)	relative viability (Irinotecan + Trametinib; first compound 2 µM)	relative viability (Irinotecan + Trametinib; first compound 6.325 µM)	relative viability (Irinotecan + Trametinib; first compound 20 µM)	relative viability (Irinotecan + Lapatinib; first compound 0.6325 µM)	relative viability (Irinotecan + Lapatinib; first compound 2 µM)	relative viability (Irinotecan + Lapatinib; first compound 6.325 µM)	relative viability (Irinotecan + Lapatinib; first compound 20 µM)	relative viability (Irinotecan + Dasatinib; first compound 0.6325 µM)	relative viability (Irinotecan + Dasatinib; first compound 2 µM)	relative viability (Irinotecan + Dasatinib; first compound 6.325 µM)	relative viability (Irinotecan + Dasatinib; first compound 20 µM)
NCI-H1792	0.937	1.14	1.42	0.88	0.973	0.356	0.532	0.225	0.205	0.92	0.949	0.202	0.11	0.803	0.747	0.506	0.192
NCI-H2087	0.916	1.12	0.947	1.09	0.804	0.0883	0.151	0.137	0.196	0.299	0.3	0.168	0.205	0.392	0.535	0.19	0.196
EKVX	0.185	0.175	0.202	0.208	0.187		0.35	0.279	0.15	0.222	0.256	0.16	0.17		0.457	0.387	0.3
NCI-H1355	0.961	1.13	0.897	0.995	0.984		0.399	0.239	0.22	0.534	0.909	0.264	0.242		0.85	0.511	0.272
NCI-H661	0.465	0.525	0.511	0.434	0.421	0.464	0.524	0.535	0.209	0.478	0.357	0.314	0.296	0.691	0.64	0.353	0.141
PC-3 [JPC-3]	0.461	0.344	0.454	0.47	0.459	0.671	0.811	0.534	0.358	0.3	0.45	0.311	0.316	0.882	0.915	0.693	0.345
NCI-H2085	0.672	0.719	0.836	0.674	0.686	0.521	0.397	0.32	0.252	0.592	0.608	0.473	0.515	0.221	0.23	0.266	0.273
NCI-H1650	0.696	0.81	0.885	0.858	0.637	0.484	0.526	0.45	0.125	0.386	0.51	0.401	0.152		0.401	0.304	0.177
NCI-H1993	0.739	0.859	0.717	0.822	1.8		0.5	0.527	0.517	0.802	0.76	0.671	0.458	0.549	0.601	0.484	0.603
NCI-H2228	1.05	1.3	1.45	1.29	0.891	0.279	0.611	0.402	0.437	0.798	0.772	0.461	0.353	0.443	0.481	0.318	0.246
LK-2	1.38	1.09	1.19	1.03	1.03	0.821	0.7	0.465	0.281	0.852	1.33	0.411	0.32	0.251	0.298	0.249	0.287
LC-2-ad	1.05	0.969	1	0.976	0.93	0.657	0.365	0.275	0.253	0.416	0.291	0.172	0.132	0.286	0.437	0.184	0.204
NCI-H596	1.09	1.06	0.997	1.19	1.14	0.86	0.731	0.682	0.758	1.11	1.03	0.613	0.579	0.576	0.765	0.703	0.633
LCLC-97TM1	1.08		1.02	1.04	0.781	0.131	0.14	0.128	0.154	0.317	0.263	0.156	0.173	0.711	0.589	0.121	0.132
SK-LU-1	0.849	1.02	0.931	0.834	0.929	0.36	0.417	0.399	0.316	0.46	0.503	0.321	0.312	0.188	0.19	0.207	0.173
NCI-H1395	1.15	1.04	1.24	1.13	1.24		0.812	0.549	0.375		0.732	0.531	0.361	0.298	0.535	0.415	0.522
COR-L23	0.982	0.845	1.3	1.04	0.996	0.307	0.41	0.23	0.0821	0.383	0.378	0.177	0.121	0.271	0.272	0.239	0.0978
NCI-H2126	0.797	0.63	0.823	0.779	0.766	0.546	0.347	0.273	0.304		0.632	0.304	0.357		0.55	0.41	0.135
